Results from article PMC10538207, “Bioactive-Guided Phytochemical Investigations, In Vitro and In Silico Alpha-Glucosidase Inhibition of Two Vietnamese Medicinal Plants Dicranopteris linearis and Psychotria adenophylla” (Pharmaceuticals, 2023).
Like-named read-outs stand apart in the source and are kept apart here.

Columns and labels:
[1] = target: T1, alpha-glucosidase (Saccharomyces cerevisiae, UniProt P53341); experiment: biochemical; conditions: for Binding Affinity Exp: ΔGexp calculated from IC50, T=300 K
T1 construct: purchased Sigma-Aldrich Co. (Saint Louis, MO, USA)
Source text: The conditions followed that of our previous report with small modifications.

[2] = tested on: HepG2 cells; conditions: read-out: hepatoprotective activity EC50; cited from earlier work
[3] = isolated compounds, read-out: Alpha-glucosidase inhibition IC50 (isolated compounds)

T1 sequence (P53341 whole entry): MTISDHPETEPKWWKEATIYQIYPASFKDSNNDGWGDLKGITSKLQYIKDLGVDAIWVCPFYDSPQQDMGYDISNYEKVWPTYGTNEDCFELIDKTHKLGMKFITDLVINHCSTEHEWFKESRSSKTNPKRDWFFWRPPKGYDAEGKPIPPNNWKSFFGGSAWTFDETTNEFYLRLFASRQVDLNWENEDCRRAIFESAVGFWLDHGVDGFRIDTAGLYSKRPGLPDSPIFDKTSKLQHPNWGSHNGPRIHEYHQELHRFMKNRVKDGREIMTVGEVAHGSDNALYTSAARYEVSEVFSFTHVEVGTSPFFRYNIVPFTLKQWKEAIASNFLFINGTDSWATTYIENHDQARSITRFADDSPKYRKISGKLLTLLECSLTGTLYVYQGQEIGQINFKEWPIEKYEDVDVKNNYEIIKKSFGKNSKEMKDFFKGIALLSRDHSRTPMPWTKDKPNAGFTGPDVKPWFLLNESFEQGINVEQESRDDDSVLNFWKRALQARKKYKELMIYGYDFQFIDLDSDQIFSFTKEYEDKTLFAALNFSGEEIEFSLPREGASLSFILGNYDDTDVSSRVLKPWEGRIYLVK

Row | SMILES | IC50 [1, 3] [µM] | Binding Affinity Exp [1] [kcal/mol] | IC50 [1] [µM] | EC50 [2] [µM]
1 | CC1(C)C[C@H](O)C[C@@](C)(O)/C(O)=C\C1=O [DL5, chakyunglupulin B] | 82.2 ± 2.2 | -5.6 | – | –
2 | O=c1c(O[C@@H]2O[C@H](CO)[C@@H](O)[C@H](O)[C@H]2O)c(-c2ccc(O)c(O)c2)oc2cc(O)cc(O)c12 [DL12, isoquercetin] | – | – | 99.8 ± 1.2 | –
3 | CC(C)(C)c1ccc(C(=O)c2ccc(C(C)(C)C)cc2C(C)(C)C)c(C(C)(C)C)c1 [DL4, 2,2′,4,4′-tetra-tert-butylbenzophenone] | > 300 | – | – | –
4 | O=c1c(-c2ccc(O)cc2)coc2cc(O)ccc12 [DL6, daidzein] | – | – | 66.9 ± 1.7 | –
5 | CC[C@H](CC[C@@H](C)[C@H]1CC[C@H]2[C@@H]3CC=C4C[C@@H](O)CC[C@]4(C)[C@H]3CC[C@]12C)C(C)C [DL1, β-sitosterol] | > 300 | – | – | –
6 | COc1ccc(-c2oc3cc(O)c(OC)c(O)c3c(=O)c2OC)cc1OC [DL9, bonanzin] | > 300 | – | – | –
7 | COc1cc(/C=C/C(=O)NC(=O)c2ccc(O)c(OC)c2)ccc1O [PA6, tribulusimide D] | 76.2 ± 2.9 | -5.7 | – | 13.5
8 | CC[C@H](CC[C@@H](C)[C@H]1CC[C@H]2[C@@H]3CC=C4C[C@@H](O[C@@H]5O[C@H](CO)[C@@H](O)[C@H](O)[C@H]5O)CC[C@]4(C)[C@H]3CC[C@]12C)C(C)C [DL2, daucosterol] | > 300 | – | – | –
9 | O=c1cc(-c2ccc(O)c(O)c2)oc2cc(O)cc(O)c12 [DL10, luteolin] | 67.1 ± 1.2 | – | – | –
10 | O=Cc1ccc(CO)o1 [PA7, 5-hydroxymethylfurfural] | > 300 | – | – | –
11 | COc1cc(-c2oc3cc(O)c(OC)c(O)c3c(=O)c2OC)ccc1O [DL8, jaceidin] | 282 ± 9.2 | -4.9 | – | –
12 | COc1cc(/C=C/C=O)ccc1O [PA4, coniferyl aldehyde] | 250 ± 11.4 | – | – | –
13 | COc1c(-c2ccc(O)c(O)c2)oc2cc(O)cc(O)c2c1=O [PA1, 3-O-methylquercetin] | > 300 | – | – | –
14 | Cc1cc(O)c2c(c1)C(=O)c1cccc(O)c1C2=O [PA5, chrysophanol] | – | -5.5 | 98.2 ± 2.2 | –
15 | CC[C@H](CC[C@@H](C)[C@H]1CC[C@H]2[C@@H]3CC(O)C4=CC(=O)CC[C@]4(C)[C@H]3CC[C@]12C)C(C)C (stereo partly drawn) [DL3, 6-hydroxystigmast-4-en-3-one] | 177 ± 3.6 | -5.1 | – | –
